Assay results from paper PMC10764104, “Discovery of Molecular Glue Degraders via Isogenic Morphological Profiling” (ACS Chemical Biology, 2023).

Columns and labels:
RKO WT cells = settings: 48 h, up to 13.5 μM tested
Excerpt: Prior to screening the compound library in the isogenic CPA, we assessed their CRBN binding affinities using a fluorescence-polarization-based competition assay with recombinant DDB1-CRBN and the fluorescent tracer 16 (Figure S2). […] We also assessed the cytotoxicity of the CRBN binders in RKO wild-type (WT) cells to determine the appropriate treatment concentration.
Assessment of gene expression and essentiality in RKO WT
Public datasets on the transcriptome and essentiality of a protein‐encoding gene for RKO (cell line ID: ACH‐000943) were retrieved from DepMap Public 23Q2 (https://depmap.org/portal/, accessed on 14 August 2023). […]
Fluorescence Polarization‐based competition assay
Fluorescence Polarization assays were performed in 384‐well, Low Volume, Black, Round Bottom, Polystyrene Nonbinding surface Microplates (Corning, #4514). […] Fluorescence polarization values were determined with a PerkinElmer Envision reader with FITC FP dual mirror and FITC FP 480 excitation filter and FITC FP 535 emission filters. Fluorescence polarization values of a 10x serial dilution (10 nM to 100 µM) of the test compounds were determined in triplicates. EC50 values were calculated with GraphPad Prism software (version 10.0.2) with a non‐linear fit function (4PL sigmoidal curve fit) adjusting the bottom constrain to the FP value of free tracer. […]

GSPT2 = target: T1, GSPT2 (Homo sapiens, UniProt Q8IYD1+Q96SW2); experiment: Western blot analysis of GSPT1 and GSPT2 degradation in RKO WT or CRBN KO cells; type: cell-based
T1 construct: endogenous in cells; host or cells: RKO WT or RKO CRBN KO
T1 sequence (Q8IYD1 whole entry): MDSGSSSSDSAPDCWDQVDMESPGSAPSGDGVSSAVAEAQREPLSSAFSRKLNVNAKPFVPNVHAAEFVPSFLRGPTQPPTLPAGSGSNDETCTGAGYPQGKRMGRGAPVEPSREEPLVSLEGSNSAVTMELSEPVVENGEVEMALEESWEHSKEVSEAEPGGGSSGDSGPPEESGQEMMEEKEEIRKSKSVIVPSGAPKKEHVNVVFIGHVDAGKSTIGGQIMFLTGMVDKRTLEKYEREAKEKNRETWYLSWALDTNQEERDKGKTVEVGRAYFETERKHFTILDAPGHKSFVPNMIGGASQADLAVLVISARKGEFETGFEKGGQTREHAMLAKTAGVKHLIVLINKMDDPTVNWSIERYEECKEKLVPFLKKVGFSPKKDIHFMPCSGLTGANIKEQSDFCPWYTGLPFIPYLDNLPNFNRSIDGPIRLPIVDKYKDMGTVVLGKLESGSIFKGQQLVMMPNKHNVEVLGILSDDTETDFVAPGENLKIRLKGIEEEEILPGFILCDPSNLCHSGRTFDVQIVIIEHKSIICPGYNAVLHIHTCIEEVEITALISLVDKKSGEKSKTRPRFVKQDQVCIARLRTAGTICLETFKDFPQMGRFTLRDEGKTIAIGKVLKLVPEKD
T1 sequence (Q96SW2 whole entry): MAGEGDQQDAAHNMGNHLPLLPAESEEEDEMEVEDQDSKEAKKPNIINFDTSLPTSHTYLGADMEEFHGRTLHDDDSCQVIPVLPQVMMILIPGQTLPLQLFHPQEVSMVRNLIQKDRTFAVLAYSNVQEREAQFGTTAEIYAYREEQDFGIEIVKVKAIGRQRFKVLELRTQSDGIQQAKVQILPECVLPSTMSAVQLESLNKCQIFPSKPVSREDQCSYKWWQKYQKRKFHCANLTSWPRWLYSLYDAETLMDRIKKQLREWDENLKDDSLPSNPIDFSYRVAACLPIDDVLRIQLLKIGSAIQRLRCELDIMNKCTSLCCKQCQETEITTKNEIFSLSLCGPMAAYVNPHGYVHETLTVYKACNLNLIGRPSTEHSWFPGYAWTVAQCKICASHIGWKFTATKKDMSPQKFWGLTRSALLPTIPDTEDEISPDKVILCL
T1 sequence (Q16531 2-1140 partner limits assumed): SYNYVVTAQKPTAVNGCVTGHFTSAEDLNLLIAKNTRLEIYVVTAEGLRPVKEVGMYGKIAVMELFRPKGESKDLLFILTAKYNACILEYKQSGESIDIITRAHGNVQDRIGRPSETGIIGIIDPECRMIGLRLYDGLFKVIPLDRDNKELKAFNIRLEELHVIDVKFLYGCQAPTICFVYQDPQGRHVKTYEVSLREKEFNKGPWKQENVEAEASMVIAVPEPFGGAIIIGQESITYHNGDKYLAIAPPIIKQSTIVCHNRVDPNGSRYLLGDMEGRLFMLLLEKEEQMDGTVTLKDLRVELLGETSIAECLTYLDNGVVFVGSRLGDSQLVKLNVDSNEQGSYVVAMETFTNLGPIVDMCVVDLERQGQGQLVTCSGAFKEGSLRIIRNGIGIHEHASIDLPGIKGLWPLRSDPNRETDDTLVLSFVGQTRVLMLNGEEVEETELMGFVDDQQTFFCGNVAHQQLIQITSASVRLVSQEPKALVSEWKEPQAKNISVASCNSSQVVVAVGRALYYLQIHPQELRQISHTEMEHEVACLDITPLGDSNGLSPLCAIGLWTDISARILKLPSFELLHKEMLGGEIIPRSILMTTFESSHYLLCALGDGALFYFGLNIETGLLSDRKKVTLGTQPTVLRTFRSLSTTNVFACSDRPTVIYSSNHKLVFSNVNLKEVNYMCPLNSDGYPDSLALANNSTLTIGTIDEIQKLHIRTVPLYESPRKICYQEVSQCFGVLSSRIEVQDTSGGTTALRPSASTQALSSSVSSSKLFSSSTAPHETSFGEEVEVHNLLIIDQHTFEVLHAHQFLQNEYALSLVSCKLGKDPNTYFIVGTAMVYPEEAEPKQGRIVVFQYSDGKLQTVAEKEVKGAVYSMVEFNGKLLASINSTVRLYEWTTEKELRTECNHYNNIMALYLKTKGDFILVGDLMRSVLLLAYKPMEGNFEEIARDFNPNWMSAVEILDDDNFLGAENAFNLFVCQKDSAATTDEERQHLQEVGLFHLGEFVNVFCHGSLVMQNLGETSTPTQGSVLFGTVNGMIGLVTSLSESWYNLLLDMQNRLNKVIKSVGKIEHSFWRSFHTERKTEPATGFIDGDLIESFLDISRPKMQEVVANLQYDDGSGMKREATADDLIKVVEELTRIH
Protocol: (A) Structure of FL2-14 comprising fluorosulfate scaffold FL2 (black) and tail group modification 14 (blue). (B) DMSO-normalized quantitative proteomics after 16 h of treatment with FL2-14 (10 μM) in RKO WT (n = 2). […] (C) Structural alignment of AlphaFold models of GSPT1 (AF-P15170-F1-model_v4 in gray) and GSPT2 (AF-Q8IYD1-F1-model_v4 in blue). (D) Validation of GSPT2 degradation by FL2-14. […] (E) Dose–response of FL2-14 in RKO and HEK293T cells. Cells were treated with the FL2-14 (0 to 10 μM) for 16 h. (F) Degradation of GSPT2^WT or GSPT2^G566N. […]
Analysis of targeted protein degradation of GSPT1 and GSPT2 via western blot For degradation assays 800 000 RKO WT or CRBN KO cells were seeded 1 day prior to the treatment in 6 well plates.
Then, cells were treated with 10 µM of the compounds for 16 hours if not otherwise stated. Cells were harvested, lysed for 30 min at 37°C in lysis buffer (1x PBS, 1% SDS, 2 mM MgCl2, 1x Halt Protease inhibitor cocktail, 50 Units Benzonase) and cleared for 30 min at 18 000 x g at 4°C. Protein concentration was determined with the Pierce 660 nm Protein Assay using the Ionic Detergent Compatibility Reagent (Thermo Scientific). 10 µg total proteome were subjected to western blot analysis by adding 4x Bolt™ LDS Sample Buffer (Thermo Scientific). Samples were boiled at 95°C for 5 min and subjected to gel electrophoresis with Bolt™ 4‐12% Bis‐Tris Plus Gels (Thermo Scientific) with Bolt™ MES SDS Running Buffer (Thermo Scientific). Membranes were blocked with 5% fat‐free milk in TBS‐T (20 mM Tris, 150 mM NaCl, 0.1% Tween, pH 7.6) for 1 h at room temperature and washed subsequently 3x 5 min with TBS‐
T. Afterwards, they were incubated for 1 h at room temperature with either GSPT1 antibody (Abcam ab49878, rabbit, […]
rabbit, 1:10 000), CRBN (Cell Signaling Technologies, CST71810S, rabbit, 1:1000), or GAPDH (SantaCruz sc‐47724, mouse, 1:1 000). Followed by washing 3x 5 min with TBS‐T and incubation for 1 h at room temperature with either Goat ANTI‐RABBIT IgG StarBright™ Blue 700 (Bio‐Rad, #12004162, 1:10 000) or Goat anti‐Mouse IgG (H+L) Cross‐ Adsorbed Secondary Antibody, DyLight™ 800 (Bio‐Rad, STAR117D800GA, 1:10 000) fluorophore‐conjugated

CN(Cc1ncc(C2CC2)o1)S(=O)(=O)Oc1ccc(Nc2ccc3c(c2)C(=O)N(C2CCC(=O)NC2=O)C3=O)cc1 (centres unmarked) [FL2-14]
cytotoxicity (CellTiter-Glo) (RKO WT cells): not cytotoxic
treatment time at which GSPT2 degradation is apparent (GSPT2; 10 µM, time-course in RKO and HEK293T cells): 5 h
GSPT2 degradation in RKO CRBN KO cells (GSPT2; RKO CRBN KO, 10 μM, 16 h): completely abrogated
degradation of GSPT2 versus GSPT1 (Western blot) (GSPT2; RKO WT, 10 μM, 16 h): preferentially degraded GSPT2 over GSPT1
concentration range of GSPT2 degradation (dose-response) (GSPT2; RKO, 0 to 10 μM, 16 h): submicromolar range
